Like-named read-outs stand apart in the source and are kept apart here.
Columns and labels:
5-lipoxygenase = molecular target: T1, 5-lipoxygenase (Cavia porcellus, UniProt A0A286X958); assay: 5-Lipoxygenase inhibitory activity (conversion of 14C-arachidonic acid to 5-HETE) in guinea pig peritoneal exudate cells; type: cell-based, guinea pig (Hartley strain); conditions: read-out: inhibition ratio (%) of 5-lipoxygenase activity; for inhibition at 0.3 µM: concentration 3 × 10^-7 M; for inhibition at 1 µM: concentration 10^-6 M; for inhibition at 0.1 µM: concentration 10^-7 M
T1 construct: endogenous in cells; host or cells: guinea pig (Hartley strain) casein-elicited peritoneal exudate cells, intact cell suspension
T1 sequence (A0A286X958 1-674): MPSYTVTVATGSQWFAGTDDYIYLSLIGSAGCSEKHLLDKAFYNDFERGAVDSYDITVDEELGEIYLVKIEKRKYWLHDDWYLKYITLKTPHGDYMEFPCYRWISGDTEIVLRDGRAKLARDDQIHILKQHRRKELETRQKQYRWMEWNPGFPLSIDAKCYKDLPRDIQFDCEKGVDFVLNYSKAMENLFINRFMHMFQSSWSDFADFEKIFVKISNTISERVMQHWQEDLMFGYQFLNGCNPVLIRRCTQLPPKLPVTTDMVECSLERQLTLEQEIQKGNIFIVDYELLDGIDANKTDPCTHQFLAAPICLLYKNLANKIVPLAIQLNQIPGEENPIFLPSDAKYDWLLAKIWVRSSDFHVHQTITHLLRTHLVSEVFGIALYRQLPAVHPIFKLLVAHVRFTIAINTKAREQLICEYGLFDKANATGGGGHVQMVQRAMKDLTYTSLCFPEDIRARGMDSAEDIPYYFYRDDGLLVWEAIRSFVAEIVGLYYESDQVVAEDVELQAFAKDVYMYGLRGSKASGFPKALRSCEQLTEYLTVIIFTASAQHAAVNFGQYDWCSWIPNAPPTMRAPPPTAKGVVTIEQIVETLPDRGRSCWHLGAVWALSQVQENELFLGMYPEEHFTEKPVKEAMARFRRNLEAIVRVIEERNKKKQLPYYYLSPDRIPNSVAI
Outline: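 Casein-elicited guinea pig peritoneal exudate cells (2.5×10^7 cells/ml, 1 mM CaCl2, 5.5 mM glucose) pretreated with 10^-5 M indomethacin, then compound 2 min at 30° C. Reaction started with 10 μm A23187 and 10 μm 14C-arachidonic acid, stopped after 3 min; metabolites separated by TLC and counted by liquid scintillation.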

[1] = tested on: SRS-A release from lung fragments; assay: Inhibition of SRS-A release from sensitized guinea pig lung fragments; type: cell-based, guinea pig (Hartley strain); conditions: Cavia porcellus
Outline: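 Lung fragments from ovalbumin-sensitized male Hartley guinea pigs were preincubated 5 min at 37 °C in Tyrode's, given compound in DMSO for 5 min, then challenged with ovalbumin for 10 min. Released histamine was bioassayed by guinea pig ileum contraction at 30 s. SRS-A was read at 2 min with 10^-6 M pyrilamine against a crude SRS-A standard curve.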

[2] = Table 2, dose 3 μM, read-out: Inhibition ratio (%) SRS-A
[3] = Table 2, dose 30 μM, read-out: Inhibition ratio (%) SRS-A
[4] = Table 2B, 3 μM, read-out: Inhibitory activities on SRS-A (%)
[5] = Table 2B, 30 μM, read-out: Inhibitory activities on SRS-A (%)

inhibition at 0.3 µM (5-lipoxygenase)	inhibition at 1 µM (5-lipoxygenase)	inhibition at 0.1 µM (5-lipoxygenase)	SMILES	inhibition at 3 µM [1, 2]	inhibition at 30 µM [1, 3]	inhibition at 3 µM [1, 4]	inhibition at 30 µM [1, 5]
84%	87%	61%	COC1=CC(=O)C(OC)=C(CCCCCC#CCCCCCC2=C(OC)C(=O)C=C(OC)C2=O)C1=O [Test Compound No. 16, 2,2'-(6-Dodecynylene)bis(3,6-dimethoxy-1,4-benzoquinone)]	23.4%	43.9%	23.4%	43.9%
55%	74%	38%	COC1=CC(=O)C(OC)=C(CCCCCC2=C(OC)C(=O)C=C(OC)C2=O)C1=O [Test Compound No. 9, 2,2'-Pentamethylenebis(3,6-dimethoxy-1,4-benzoquinone)]	50.3%	> 94.8%	50.3%	94.2%
72%	91%	43%	COC1=CC(=O)C(OC)=C(CCCCCCCCCC2=C(OC)C(=O)C=C(OC)C2=O)C1=O [Test Compound No. 13, 2,2'-Nonamethylenebis(3,6-dimethoxy-1,4-benzoquinone)]	22.4%	43.9%	22.4%	43.9%
